According to US8193364B2, “Insecticidal N-substituted (6-haloalkylpyridin-3-yl)-alkyl sulfoximines” (Dow AgroSciences, LLC., priority 2006, dated 2012):

How the values were obtained:
Format in all cases: in vivo
[1] = system: Cotton Aphid (Aphis gossypii); experiment: Cotton aphid foliar spray assay on squash; conditions: 72 h, read-out: % Control of cotton aphid on squash (foliar spray)
Description: Squash with fully expanded cotyledon leaves were trimmed to one cotyledon per plant and infested with cotton aphid (wingless adult and nymph) 1 day prior to chemical application. Each plant was examined before chemical application to ensure proper infestation (ca. 30-70 aphids per plant). Compounds (2 mg) were dissolved in 2 ml of acetone:methanol (1:1) solvent, forming stock solutions of 1000 ppm. The stock solutions were then diluted with a diluent consisting 80 parts of 0.025% Tween 20 in H2O and 20 parts of acetone:methanol (1:1). A hand-held Devilbiss sprayer was used to apply the test solutions until runoff to both sides of the squash cotyledon leaves. Four plants (4 replications) were used for each concentration of each compound. Reference plants (solvent check) were sprayed with the diluent only. Treated plants were held in a holding room for 3 days at approximately 23° C. and 40% RH before the number of live aphids on each plant was recorded. Insecticidal activity was measured by Corrected % Control using Abbott's correction formula and presented in Table 1: Corrected % Control=100*(X−Y)/X • where X=No. of live aphids on solvent check plants • Y=No. of live aphids on treated plants

[2] = system: Brown Planthopper (Nilaparvata lugens); experiment: Brown planthopper foliar spray assay on rice
Description: (§1) A foliar spray assay and a root-uptake systemic assay were performed on both brown planthopper and green leafhopper. Four-week-old rice seedlings were submerged in 3-cm depth of water in the bottom portion (high 5 cm, diameter 3 cm) of a 2-part glass cylinder (high 18 cm, diameter 3 cm). A metal screen was used to hold the seedlings within the bottom portion. Scotch tape was used to bind the two portions of the cylinder after setting up the seedlings. A metal cap was used to cover the cylinder. There were 4 cylinders for each treatment. The test compound was dissolved in acetone to make a 10,000 ppm stock solution. For the foliar spray assay, this stock solution was diluted with water to make 10, 2.5, 0.31, 0.08 and 0.02 ppm test solutions. A volume of 0.5 ml of a test solution or solvent blank as check was sprayed into the glass cylinder. For systemic test, the stock solution was incorporated at final test concentrations of 10, 2.5, 0.31, 0.08 and 0.02 ppm in the water in which rice seedlings were submerged. In both foliar spray and systemic tests, five laboratory-reared 3rd instar nymphs of brown planthopper or green leafhopper were introduced into each cylinder 3 hr after insecticide application. The treated test units were kept in a growth chamber with conditions set as followings: Temperature 28±0.5° C.; Relative humidity 70±0.5%; Photoperiod […].

[3] = system: Brown Planthopper (Nilaparvata lugens); experiment: Brown planthopper root-uptake systemic assay on rice
Description: as §1

[4] = system: Green Peach Aphid (Myzus persicae); experiment: Green peach aphid root uptake assay on pepper; conditions: 3 days after infestation
Description: Systemic activity of compound 2 against green peach aphid was evaluated in a root uptake assay. Bell peppers (Capsicum annum var. California Wonder) was used as test plant seeded and grown in rock wool plugs. Plants were grown to expanding 1st true leaf stage. The rock wool plugs containing individual plants were placed in 1-ounce cups and surrounded with white clean sand. Five plants were used for each treatment. Stock solution of 1000 ppm was made by dissolving 2 mg of technical test compound in 2 mL acetone. The highest test concentration (10 ppm, 0.05 mg/5 ml) was prepared by diluting 0.32 mL stock solution with 1.6 mL acetone and 30.08 mL DI water, containing 6% acetone. Lower test concentrations were prepared by sequentially diluting 6.5 mL higher concentration (start from the 10 ppm test solution) with 26.0 ml acetone:DI water (6:94). A volume of 5 mL was applied to each cup (each plant). Use 6% acetone in water as solvent check. After insecticide application, the seedlings were infested with green peach aphids and held in a growth chamber (25° C., 50 R.H, 16 hr light: 8 hr drak). Number of live aphid on each plant was counted at 3 days after infestation. Calculations for % control were based on a corrected basis compared to the populations on the solvent check plants. Corrected % Control=100*(X−Y)/X • where X=No. of live aphids on solvent check plants • Y=No. of live aphids on treated plants The Corrected % Control values from lower test rates are given in Table 6.

[5] = system: Eastern Subterranean Termite (Reticulitermes flavipes); experiment: Eastern subterranean termite filter paper assay
Description: Activity of Compound 2 was evaluated for its activity on Eastern subterranean termite. Technical material of the test compound was formulated in acetone on a wt/wt basis to deliver 1000, 500, 200, 50, 12.5, 3.12 and 0.78 ppm to 42.5 mm Whatman No. 1 filter papers per 200 ul of pipetted solution. Each test concentration was applied to six filter papers (6 reps). Six acetone-only control units and six DI water-only control units were also prepared. The filter papers were dried overnight in the fume hood before they were placed into 60×15 mm Fisher Brand plastic Petri dishes. A volume of 200 ul DI water was pipetted onto each filter paper at the time of test set-up, just prior to infesting with termites. Ten worker termites were added to each Petri dish and covered. The infested Petri dishes were put in the laboratory Conviron at 28° C. and 60% RH. Termite mortality was recorded at 1, 2, 4, 7, and 10 days after infestation (DAI). Throughout the duration of the test, an average of 150 ul of DI water was added daily to the filter papers to retain moisture.

## CC(c1ccc(C(F)(F)F)nc1)S(C)(=O)=NC#N (centres unmarked) [Compound 2, [1-(6-trifluoromethylpyridin-3-yl)ethyl](methyl)-oxido-λ^4-sulfanylidenecyanamide]
[1]
  pest or weed control at 0.049 ppm: 90 to 100%
  pest or weed control at 0.195 ppm: 90 to 100%
  pest or weed control at 0.781 ppm: 90 to 100%
  pest or weed control at 3.13 ppm: 90 to 100%
[2]; 0.02 ppm
  % Control at ppm against brown planthopper: F (Less than 50)
[2]; 0.08 ppm
  % Control at ppm against brown planthopper: E (50-59)
[2]; 0.31 ppm
  % Control at ppm against brown planthopper: A (90-100)
[2]; 2.5 ppm
  % Control at ppm against brown planthopper: A (90-100)
[2]; 10 ppm
  % Control at ppm against brown planthopper: A (90-100)
[3]; 0.02 ppm in water
  % Control at ppm against brown planthopper: F (Less than 50)
[3]; 0.08 ppm in water
  % Control at ppm against brown planthopper: C (70-79)
[3]; 0.31 ppm in water
  % Control at ppm against brown planthopper: A (90-100)
[3]; 2.5 ppm in water
  % Control at ppm against brown planthopper: A (90-100)
[3]; 10 ppm in water
  % Control at ppm against brown planthopper: A (90-100)
[4]; 0.08 ug/plant
  % Control, root uptake systemic, green peach aphid on pepper: 61%
[4]; 0.4 ug/plant
  % Control, root uptake systemic, green peach aphid on pepper: 95%
[4]; 2 ug/plant
  % Control, root uptake systemic, green peach aphid on pepper: 100%
[4]; 10 ug/plant
  % Control, root uptake systemic, green peach aphid on pepper: 100%
[5]; 1 DAI
  mortality at 0.78 ppm: 7%
  mortality at 3.13 ppm: 25%
  mortality at 12.5 ppm: 48%
  mortality at 50 ppm: 55%
  mortality at 200 ppm: 55%
  mortality at 500 ppm: 63%
  mortality at 1000 ppm: 87%
[5]; 2 DAI
  mortality at 0.78 ppm: 17%
  mortality at 3.13 ppm: 48%
  mortality at 12.5 ppm: 67%
  mortality at 50 ppm: 72%
  mortality at 200 ppm: 72%
  mortality at 500 ppm: 82%
  mortality at 1000 ppm: 90%
[5]; 4 DAI
  mortality at 0.78 ppm: 58%
  mortality at 3.13 ppm: 67%
  mortality at 12.5 ppm: 90%
  mortality at 50 ppm: 98%
  mortality at 200 ppm: 80%
  mortality at 500 ppm: 98%
  mortality at 1000 ppm: 100%
[5]; 7 DAI
  mortality at 0.78 ppm: 73%
  mortality at 3.13 ppm: 83%
  mortality at 12.5 ppm: 100%
  mortality at 50 ppm: 100%
  mortality at 200 ppm: 100%
  mortality at 500 ppm: 100%
  mortality at 1000 ppm: 100%
[5]; 10 DAI
  mortality at 0.78 ppm: 80%
  mortality at 3.13 ppm: 87%
  mortality at 12.5 ppm: 100%
  mortality at 50 ppm: 100%
  mortality at 200 ppm: 100%
  mortality at 500 ppm: 100%
  mortality at 1000 ppm: 100%
